Laboratory results published in ChEMBL document CHEMBL6096687, “In Vivo Stability Improvement of Astatobenzene Derivatives by Introducing Neighboring Substituents” (J Med Chem, 2025).

Tests used:
[1] = Stability in mouse plasma assessed as parent compound remaining measured after 1 hrs by TLC analysis; type: ADME, cell-free; conditions: read-out: Stability
[2] = In vivo stability in male ddY mouse thyroid gland assessed as decrease in radioactivity at 37 kBq, iv measured after 10 to 240 mins by autowell-gamma counter analysis; type: ADME, organism-based; conditions: time 10-240 min
[3] = In vivo stability in male ddY mouse stomach assessed as decrease in radioactivity at 37 kBq, iv measured after 10 to 240 mins by autowell-gamma counter analysis; type: ADME, organism-based; conditions: time 10-240 min
[4] = Drug accumulation in male ddY mouse kidney at 37 kBq, iv measured after 10 to 240 mins by autowell-gamma counter analysis; type: ADME, organism-based; conditions: in vivo, time 10-240 min
[5] = Drug accumulation in male ddY mouse intestine at 37 kBq, iv measured after 10 to 240 mins by autowell-gamma counter analysis; type: ADME, organism-based; conditions: in vivo, time 10-240 min
[6] = Drug accumulation in male ddY mouse liver at 37 kBq, iv measured after 10 to 240 mins by autowell-gamma counter analysis; type: ADME, organism-based; conditions: in vivo, time 10-240 min
[7] = In vivo metabolic stability in male ddY mouse urine assessed as intact compound at 37 kBq, iv measured after 1 hrs by RP-HPLC analysis; type: ADME, organism-based; conditions: read-out: Stability
[8] = biological target: Albumin (Homo sapiens, UniProt P02768); assay: Binding affinity to human serum albumin assessed as binding constant by ITC analysis; type: ADME; conditions: isolated protein
Albumin, sequence (P02768 whole entry): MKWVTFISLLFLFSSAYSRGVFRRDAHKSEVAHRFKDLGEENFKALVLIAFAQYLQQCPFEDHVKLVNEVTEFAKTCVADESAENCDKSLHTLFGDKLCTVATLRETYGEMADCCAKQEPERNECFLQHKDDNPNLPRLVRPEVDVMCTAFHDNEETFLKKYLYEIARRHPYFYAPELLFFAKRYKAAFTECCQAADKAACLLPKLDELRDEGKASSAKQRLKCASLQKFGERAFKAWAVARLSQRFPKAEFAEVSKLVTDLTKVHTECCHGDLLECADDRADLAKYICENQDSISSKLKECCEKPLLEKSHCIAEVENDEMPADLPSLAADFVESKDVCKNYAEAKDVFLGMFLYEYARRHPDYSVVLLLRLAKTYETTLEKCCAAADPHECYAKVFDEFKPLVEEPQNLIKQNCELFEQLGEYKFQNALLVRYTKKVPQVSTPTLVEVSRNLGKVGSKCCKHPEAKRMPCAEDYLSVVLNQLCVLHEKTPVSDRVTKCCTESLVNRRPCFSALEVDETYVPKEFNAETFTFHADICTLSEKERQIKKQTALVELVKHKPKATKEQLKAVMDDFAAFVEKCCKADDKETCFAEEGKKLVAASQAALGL

| Drug uptake [4] | Drug uptake [5] | Drug uptake [6] | Kb [8] [M⁻¹] | Structure (SMILES) | remaining at 1 h [1] [%] | Stability [2] | Stability [3] | remaining at 1 h [7] [%] |
| --- | --- | --- | --- | --- | --- | --- | --- | --- |
| – | – | – | – | COCOCc1cc(C(=O)NCC(=O)O)cc(COCOC)c1[125I] | 92.9 | Stable | Stable | – |
| – | – | – | – | COCOCc1cc(C(=O)NCC(=O)O)cc(COCOC)c1[211At] | 81.5 | Unstable | Unstable | – |
| Active | Active | Active | – | O=C(O)CNC(=O)c1cc(CO)c([125I])c(CO)c1 | 95.8 | Stable | Stable | – |
| Active | – | – | – | O=C(O)CNC(=O)c1ccc([125I])cc1 | 98.4 | Stable | Stable | – |
| Active | Active | Active | – | CN(C)C(=O)c1cc(C(=O)NCC(=O)O)cc(C(=O)N(C)C)c1[125I] | 92.7 | Stable | Stable | 75.7 |
| – | – | – | – | CN(C)C(=O)c1cc(C(=O)NCC(=O)O)ccc1[211At] | 95.8 | Unstable | Unstable | – |
| – | – | – | – | O=C(O)CNC(=O)c1cc(CO)c([211At])c(CO)c1 | 88.7 | Unstable | Unstable | – |
| – | – | – | – | O=C(O)CNC(=O)c1ccc([211At])cc1 | 81.4 | Unstable | Unstable | – |
| Active | Active | Active | – | CN(C)C(=O)c1cc(C(=O)NCC(=O)O)ccc1[125I] | 96.9 | – | – | – |
| – | – | – | 1000 | O=C(O)CNC(=O)c1ccccc1 [HIPPURIC ACID] | – | – | – | – |

| Structure (SMILES) | Drug uptake [4] | Drug uptake [5] | Drug uptake [6] | Kb [8] [M⁻¹] | remaining at 1 h [1] [%] | Stability [2] | Stability [3] | remaining at 1 h [7] [%] |
| --- | --- | --- | --- | --- | --- | --- | --- | --- |
| CN(C)C(=O)c1cc(C(=O)NCC(=O)O)cc(C(=O)N(C)C)c1[211At] | – | Active | Active | – | 92 | Stable | Stable | 86.4 |
